Measured values as given in paper PMC4741798, “Imaging of carbonic anhydrase IX with an ^111In-labeled dual-motif inhibitor” (Oncotarget, 2015).
Values joined by “and” are separate entries in the source; they are usually repeats but may differ in a detail not shown here. Equal values may be shown once. “Also recorded” adds a separate entry of the source.

What was measured:
SK-RC-52 xenografts = assay: Biodistribution in mice bearing SK-RC-52 xenografts; assay type: in vivo; settings: for Tumor/mm (muscle) ratio / Biodistribution: Tumor / Biodistribution: Bladder / Biodistribution: Blood / Biodistribution: Brain / Biodistribution: Fat / Biodistribution: Heart / Biodistribution: Kidney (kid) / Biodistribution: Liver / Biodistribution: Lung / Biodistribution: Muscle (mm) / Biodistribution: Pancreas / Biodistribution: Sm. intestine / Biodistribution: Spleen / Biodistribution: Stomach / Tumor/blood ratio / Tumor/kid (kidney) ratio: n = 5; for Biodistribution: Tumor: SK-RC-52 tumor
Description: Mice bearing SK-RC-52 xenografts within the lower left flank were injected intravenously with 740 kBq (20 μCi) of [^111In]XYIMSR-01 in 200 μL of PBS. For in vivo competition (binding specificity) studies, tumor-bearing mice were injected with 740 kBq (20 μCi) of [^111In]XYIMSR-01 and 200 nmole of 1 in 200 μL of PBS concurrently. At 1 h, 4 h, 8 h, 24 h and 48 h post-injection, mice were sacrificed by cervical dislocation and the blood was immediately collected by cardiac puncture. Heart, lungs, pancreas, spleen, fat, brain, muscle, small intestines, liver, stomach, kidney, urinary bladder, and tumor were collected. Each organ was weighed and the tissue radioactivity was measured with an automated gamma counter (1282 Compugamma CS, Pharmacia/LKBNuclear, Inc., Mt. Waverly, Vic. Australia). The percentage of injected dose per gram of tissue (% ID/g) was calculated by comparison with samples of a standard dilution of the initial dose. All measurements were corrected for radioactive decay.
Data were expressed as mean ± standard deviation (SD). Prism software (GraphPAD, San Diego, California) was used to determine statistical significance. Statistical significance was calculated using a paired t test. P-values < 0.0001 were considered significant.

[1] = tested on: CAIX-expressing SK-RC-52 tumors; assay: SPECT/CT imaging of mice with SK-RC-52 tumors; assay type: in vivo; settings: 14.8 MBq via tail vein
Description: Mice harboring subcutaneous SK-RC-52 tumors with the lower left flank were injected with 14.8 MBq (400 μCi) of [^111In]XYIMSR-01 in 250 μL of PBS (pH = 7.0) intravenously (tail vein). Anesthesia was then induced with 3% isofluorane and maintained at 2% isoflurane. Physiologic temperature was maintained with an external light source while the mouse was on the gantry. Imaging employed a CT-equipped Gamma Medica-Ideas SPECT scanner (Northridge, CA). SPECT data were acquired in 64 projections at 65 s per projection using medium energy pinhole collimators. A CT scan was performed in 512 projections at the end of each SPECT scan for anatomic co-registration. CT and SPECT scans were performed at 1, 4, 8, 24, and 48 h post-injection of [^111In]XYIMSR-01. Imaging data sets were reconstructed using the manufacturer's software. Display of images utilized Amide software (Dice Holdings, Inc. NY).

[2] = 48 h + Block (co-injected 200 nmole of 1)
[3] = plateau followed by one phase decay fit of Table 1 data

Compound: CC(CCC(=O)N[C@@H](CC(=O)N[C@@H](CC(=O)N[C@@H](CCCCn1cc(CCCC(=O)Nc2nnc(S(N)(=O)=O)s2)nn1)C(=O)NCCOCCOCCNC(=O)CN1CCN(CC(=O)[O-])CCN(CC(=O)[O-])CCN(CC(=O)[O-])CC1)C(=O)O)C(=O)O)(c1ccc(O)cc1)c1ccc(O)cc1.[111In+3] [[^111In]XYIMSR-01]
- Tumor/mm (muscle) ratio (SK-RC-52 xenografts; 24 h + Block (co-injected 200 nmole of 1)): 91.4 ± 11.1
- tumor/liver ratio (SK-RC-52 xenografts; 24 h post-injection): 8.5
- Biodistribution: Tumor (SK-RC-52 xenografts; 24 h post-injection, i.v.): 25.62 ± 17.67 %ID/g
- Biodistribution: Bladder (SK-RC-52 xenografts; 24 h post-injection, i.v.): 0.74 ± 0.17 %ID/g
- Biodistribution: Blood (SK-RC-52 xenografts; 24 h post-injection, i.v.): 0.15 ± 0.02 %ID/g
- Biodistribution: Brain (SK-RC-52 xenografts; 24 h post-injection, i.v.): 0.71 ± 0.85 %ID/g
- Biodistribution: Fat (SK-RC-52 xenografts; 24 h post-injection, i.v.): 0.28 ± 0.19 %ID/g
- Biodistribution: Heart (SK-RC-52 xenografts; 24 h post-injection, i.v.): 1.16 ± 0.20 %ID/g
- Biodistribution: Kidney (kid) (SK-RC-52 xenografts; 24 h post-injection, i.v.): 15.29 ± 1.69 %ID/g
- Biodistribution: Liver (SK-RC-52 xenografts; 24 h post-injection, i.v.): 3.02 ± 3.46 %ID/g
- Biodistribution: Lung (SK-RC-52 xenografts; 24 h post-injection, i.v.): 11.01 ± 3.71 %ID/g
- Biodistribution: Muscle (mm) (SK-RC-52 xenografts; 24 h post-injection, i.v.): 0.35 ± 0.12 %ID/g
- Biodistribution: Pancreas (SK-RC-52 xenografts; 24 h post-injection, i.v.): 0.69 ± 0.18 %ID/g
- Biodistribution: Sm. intestine (SK-RC-52 xenografts; 24 h post-injection, i.v.): 2.11 ± 0.33 %ID/g
- Biodistribution: Spleen (SK-RC-52 xenografts; 24 h post-injection, i.v.): 0.69 ± 0.39 %ID/g
- Biodistribution: Stomach (SK-RC-52 xenografts; 24 h post-injection, i.v.): 3.31 ± 1.25 %ID/g
- Tumor/blood ratio (SK-RC-52 xenografts; 24 h post-injection): 178 and 178.1 ± 145.4
- Tumor/kid (kidney) ratio (SK-RC-52 xenografts; 24 h post-injection): 1.7 and 1.7 ± 1.2
- Tumor/mm (muscle) ratio (SK-RC-52 xenografts; 24 h post-injection): 68 and 68.4 ± 29.0
- Biodistribution: Tumor (SK-RC-52 xenografts; [2]): 1 %ID/g and 1.22 ± 0.54 %ID/g
- Biodistribution: Bladder (SK-RC-52 xenografts; [2]): 0.14 ± 0.03 %ID/g
- Biodistribution: Blood (SK-RC-52 xenografts; [2]): 0.03 ± 0.00 %ID/g
- Biodistribution: Fat (SK-RC-52 xenografts; [2]): 0.03 ± 0.01 %ID/g
- Biodistribution: Heart (SK-RC-52 xenografts; [2]): 0.04 ± 0.01 %ID/g
- Biodistribution: Kidney (kid) (SK-RC-52 xenografts; [2]): 0.45 ± 0.09 %ID/g
- Biodistribution: Liver (SK-RC-52 xenografts; [2]): 0.13 ± 0.04 %ID/g
- Biodistribution: Lung (SK-RC-52 xenografts; [2]): 0.09 ± 0.02 %ID/g
- Biodistribution: Muscle (mm) (SK-RC-52 xenografts; [2]): 0.02 ± 0.00 %ID/g
- Biodistribution: Pancreas (SK-RC-52 xenografts; [2]): 0.03 ± 0.01 %ID/g
- Biodistribution: Sm. intestine (SK-RC-52 xenografts; [2]): 0.08 ± 0.02 %ID/g
- Biodistribution: Spleen (SK-RC-52 xenografts; [2]): 0.11 ± 0.03 %ID/g
- Biodistribution: Stomach (SK-RC-52 xenografts; [2]): 0.14 ± 0.03 %ID/g
- Tumor/blood ratio (SK-RC-52 xenografts; [2]): 45.4 ± 13.8
- Tumor/kid (kidney) ratio (SK-RC-52 xenografts; [2]): 2.7 ± 0.8
- Tumor/mm (muscle) ratio (SK-RC-52 xenografts; [2]): 75.1 ± 17.7
- Biodistribution: Tumor (SK-RC-52 xenografts; 48 h post-injection, i.v.): 13.92 ± 6.67 %ID/g
- Biodistribution: Bladder (SK-RC-52 xenografts; 48 h post-injection, i.v.): 0.38 ± 0.18 %ID/g
- Biodistribution: Blood (SK-RC-52 xenografts; 48 h post-injection, i.v.): 0.06 ± 0.02 %ID/g
- Biodistribution: Brain (SK-RC-52 xenografts; 48 h post-injection, i.v.): 0.41 ± 0.05 %ID/g
- Biodistribution: Fat (SK-RC-52 xenografts; 48 h post-injection, i.v.): 0.25 ± 0.08 %ID/g
- Biodistribution: Heart (SK-RC-52 xenografts; 48 h post-injection, i.v.): 0.84 ± 0.16 %ID/g
- Biodistribution: Kidney (kid) (SK-RC-52 xenografts; 48 h post-injection, i.v.): 8.78 ± 1.89 %ID/g
- Biodistribution: Liver (SK-RC-52 xenografts; 48 h post-injection, i.v.): 1.65 ± 0.26 %ID/g
- Biodistribution: Lung (SK-RC-52 xenografts; 48 h post-injection, i.v.): 9.22 ± 1.25 %ID/g
- Biodistribution: Muscle (mm) (SK-RC-52 xenografts; 48 h post-injection, i.v.): 0.39 ± 0.28 %ID/g
- Biodistribution: Pancreas (SK-RC-52 xenografts; 48 h post-injection, i.v.): 0.59 ± 0.18 %ID/g
- Biodistribution: Sm. intestine (SK-RC-52 xenografts; 48 h post-injection, i.v.): 1.22 ± 0.44 %ID/g
- Biodistribution: Spleen (SK-RC-52 xenografts; 48 h post-injection, i.v.): 0.67 ± 0.13 %ID/g
- Biodistribution: Stomach (SK-RC-52 xenografts; 48 h post-injection, i.v.): 1.82 ± 0.43 %ID/g
- Tumor/blood ratio (SK-RC-52 xenografts; 48 h post-injection): 212.0 ± 41.4
- Tumor/kid (kidney) ratio (SK-RC-52 xenografts; 48 h post-injection): 1.5 ± 0.5
- Tumor/mm (muscle) ratio (SK-RC-52 xenografts; 48 h post-injection): 52.0 ± 21.0
- Calculated biological excretion half-life: Bladder (SK-RC-52 xenografts; [3]): 3.730 hr
- Calculated biological excretion half-life: Blood (SK-RC-52 xenografts; [3]): 3.246 hr
- Calculated biological excretion half-life: Brain (SK-RC-52 xenografts; [3]): 3.926 hr
- Calculated biological excretion half-life: Fat (SK-RC-52 xenografts; [3]): 1.536 hr
- Calculated biological excretion half-life: Heart (SK-RC-52 xenografts; [3]): 3.538 hr
- Calculated biological excretion half-life: Kidney (SK-RC-52 xenografts; [3]): 4.344 hr
- Calculated biological excretion half-life: Liver (SK-RC-52 xenografts; [3]): 4.243 hr
- Calculated biological excretion half-life: Lung (SK-RC-52 xenografts; [3]): 5.602 hr
- Calculated biological excretion half-life: Muscle (SK-RC-52 xenografts; [3]): 2.534 hr
- Calculated biological excretion half-life: Pancreas (SK-RC-52 xenografts; [3]): 3.179 hr
- Calculated biological excretion half-life: SK-RC-52 tumor (SK-RC-52 xenografts; [3]): 12.27 hr
- Calculated biological excretion half-life: Small intestine (SK-RC-52 xenografts; [3]): 5.597 hr
- Calculated biological excretion half-life: Stomach (SK-RC-52 xenografts; [3]): 3.908 hr
- retention of radioactivity seen by SPECT/CT at late time points (in words) ([1]; 24-48 h post-injection): nearly all of the radioactivity in the kidneys and other organs had been eliminated, with tumor still retaining significant amounts of radiotracer; also recorded: Retention of radioactivity was exclusively observed in tumors by 48 h
- tumor uptake seen by SPECT/CT (in words) ([1]; two mice): radiotracer uptake was observed within the tumors at 1 h post-injection; also recorded: radiotracer uptake in tumor as early as 1 h post-injection
